Test results: patent publication US20070161628A1, “Phosphodiesterase inhibitors” (GREENPHARMA, priority 2004, published 2007)

What was measured:
[1] = tested on: TNF-alpha in peripheral blood mononuclear cells (PBMC); assay: Anti-inflammatory properties: TNF-alpha in LPS-activated PBMC; assay type: cell-based; details: LPS 1 μg/ml, 24 hours, EIA
Protocol: The compounds according to the invention were evaluated for their anti-inflammatory properties on peripheral blood mononuclear cells (PBMC). More particularly, the cells were incubated for 24 hours in the presence of the test molecule, after activation with lipopolysaccharide (LPS) (1 μg/ml) according to the protocol described by Schindler, R., Mancilla, J., Endres, S., Ghorbani, R., Clark, S. C. and Dinarello, C. A. (Blood, 1990, 75, 40-47). After incubation, the concentrations of TNF-alpha were measured in the culture supernatants by the EIA method.

PDE3 (human) = assay: Selectivity towards PDE3; assay type: biochemical; details: PDE1, 3, 5 and 6
Protocol: (§1) D., JACKMAN S. A. and WILKE R. (Brit. J. Pharmacol. 1989, 97, 889-897); (ii, PDE3 and PDE5) Weishaar, R. E., Burrows, S. D., Kobylarz, D. C., Quade, M. M. and Evans, D. B. (Biochem. Pharmacol., 1986, 35, 787-800); (iii, PDE6) Ballard, A. S., Gingell, C. J., Tang, K., Turner, L. A., PRICE, M. E. (J. Urol, 1998, 159, 2164-2171). […] In the case of PDE 5 and 6, the substrate used is ([^3H]cGMP+cGMP) at a concentration of 1 μM for PDE5 and 2 μM for PDE6. A quantitative measurement of the hydrolysis products [^3H]-5′-AMP and [^3H]-5′-GMP was determined by scintillation.

[2] = tested on: human type 4 phosphodiesterase (source: U-937 cells); assay: Inhibition of PDE4
Protocol: A quantitative measurement of the hydrolysis product [^3H]-5′-AMP was determined by scintillation.

trabecular bone = assay: Microarchitecture and study of bone markers in mice; assay type: in vivo, C57BL6 mice; details: 5 mg/kg per day, 5 days per week, 4 weeks, subcutaneous; for effect on the bone quantity and microarchitecture (BV/TV, Tb.N): distal metaphysis of the femur, microQCT
Protocol: The object is to test the effect of the components described above on the microarchitecture of the trabecular bone. […] Results on the Bone Microarchitecture • No significant difference between the groups at the start of the treatment. No significant difference between the control (base) group and the Sham group. All the significant differences are represented by an *, *p<0.05; **p<0.01 • Several parameters (10) are recorded and analysed, such as: • BV/TV: represents the bone volume of the trabecular bone to the tissue volume, • Tb.N: trabecular number. The trabecular bone volume (BV/TV, %) and the trabecular number (Tb.N) are calculated via the “Mean Intercept Length (MIL)” method. The trabecular thickness (Tb.Th) and the trabecular space (Tb.Sp) are calculated via the method described by Hildebrand & Ruegsegger (Journal of Microscopy. 185:67-75, 1997). • BV/TV: FIG. 5 • Tb.N: FIG. 6 CONCLUSION

PDE1 (bovine) = assay: Selectivity towards PDE1; assay type: biochemical; details: substrate [3H]cAMP+cAMP 1 μM, 30 minutes at 30° C.
Protocol: as §1

[3] = target: T1, human type 2 phosphodiesterase (source: U-937 cells) (Homo sapiens, UniProt O00408); assay: Inhibition of PDE2; assay type: biochemical; details: substrate 1 μM, 30 minutes at 30° C.
T1 construct: human type 2 phosphodiesterase (source: U-937 cells); endogenous in cells; host or cells: U-937 cells
Protocol: This novel family of compounds was tested as inhibitor of human type 2 phosphodiesterase (source: U-937 cells) by following the process described by Torphy, T. J., Zhou, H. L. and Cieslinski, L. B. (J. Pharmacol. Exp. Ther., 1992, 263, 1195-1205). […] A quantitative measurement of the hydrolysis product [^3H]-5′-AMP was determined by scintillation.

[4] = tested on: primary cultures of rat motor neuron embryonic cells; assay: Neuroprotective effect, apoptosis induced by suppression of BDNF; assay type: cell-based; details: 1 μM; apoptosis induced by BDNF deprivation
Protocol: This test was performed according to the protocol described by Estevez A. G. et al. (J. Neurosci. 1998, 18(3), 923-931). Briefly, when primary cultures of rat motor neuron embryonic cells are deprived of “brain-derived neurotrophic factor” (BDNF), an induction of neuronal “nitric oxide synthase” (NOS) was observed, resulting in the gradual death of the neurons by apoptosis: between 18 and 24 hours after making the biological preparation, more than 60% of the neurons die. In this model of induced apoptosis, the compound described in Example 1 (S-tofisopam and analogues) protects the neurons by more than 50% at a concentration of 1 μM.

[5] = tested on: primary neuron cultures (foetal rat cerebral cortex); assay: Stimulation of neurotrophic factors: primary neuron cultures observed with and without compound; assay type: cell-based
Protocol: The neurons are cultured in neurobasal medium using foetal rat cerebral cortex according to the procedure described in Example 1 and are photographed without staining 17 days after culturing. Culture A is a control culture without compound. […] Compounds according to the invention were evaluated for their neurotrophic properties. The idea is thus to observe the behaviour of a neuron cell culture in the absence and presence of such molecules. The molecule used in this example is S-tofisopam. The adult animals are coupled and the female rats are separated out the next day. After 16 days, a caesarean section is performed on the gestating female rats and the foetuses are placed in a Petri dish 100 mm in diameter. They are transferred to a laminar flow fume cupboard, in sterile medium. The foetuses are individually isolated and are dissected under a binocular magnifying glass in sterile medium. The cerebral cortex is isolated and placed in a tube containing antibiotic-free neurobasal medium. The tissue is dissociated by suction-ejection, into individual cells in a volume of 2 ml. The cell suspension is then delicately deposited on 2-ml of inactivated foetal calf serum. The tube is centrifuged at low gravity (800 g) for 5 minutes at room temperature. The cell pellet is recovered and the cells are resuspended in complete neurobasal medium. The cells are counted using a Mallassez haematimeter in the presence of trypan blue to determine the cell viability. Culturing is performed by placing 800 000 cells in Petri dishes 60 mm in diameter containing complete neurobasal medium, preheated and equilibrated in a CO2 incubator. These dishes were lined beforehand with a polylysine coat the day before the manipulation. The incubator temperature is set at 37° C., the CO2 level at 5% and the humidity is saturating. The Petri dishes containing the cells are then placed in the incubator. […] These cultures constitute primary neuron cultures. The neuron cultures as prepared above serve as controls. Five dishes are used in order to have a statistical approach. In the other dishes, the test molecule is added at different concentrations: 0.1 μmol/l, 1 μmol/l and 10 μmol/l. In each case, the manipulation is repeated 5 times. The neurons are examined by inverted phase-contrast microscope (Zeiss Axiovert 135) every day after inoculation. The neurons are photographed at various magnifications using a photography camera and are compared between series.

T1 sequence (O00408 whole entry): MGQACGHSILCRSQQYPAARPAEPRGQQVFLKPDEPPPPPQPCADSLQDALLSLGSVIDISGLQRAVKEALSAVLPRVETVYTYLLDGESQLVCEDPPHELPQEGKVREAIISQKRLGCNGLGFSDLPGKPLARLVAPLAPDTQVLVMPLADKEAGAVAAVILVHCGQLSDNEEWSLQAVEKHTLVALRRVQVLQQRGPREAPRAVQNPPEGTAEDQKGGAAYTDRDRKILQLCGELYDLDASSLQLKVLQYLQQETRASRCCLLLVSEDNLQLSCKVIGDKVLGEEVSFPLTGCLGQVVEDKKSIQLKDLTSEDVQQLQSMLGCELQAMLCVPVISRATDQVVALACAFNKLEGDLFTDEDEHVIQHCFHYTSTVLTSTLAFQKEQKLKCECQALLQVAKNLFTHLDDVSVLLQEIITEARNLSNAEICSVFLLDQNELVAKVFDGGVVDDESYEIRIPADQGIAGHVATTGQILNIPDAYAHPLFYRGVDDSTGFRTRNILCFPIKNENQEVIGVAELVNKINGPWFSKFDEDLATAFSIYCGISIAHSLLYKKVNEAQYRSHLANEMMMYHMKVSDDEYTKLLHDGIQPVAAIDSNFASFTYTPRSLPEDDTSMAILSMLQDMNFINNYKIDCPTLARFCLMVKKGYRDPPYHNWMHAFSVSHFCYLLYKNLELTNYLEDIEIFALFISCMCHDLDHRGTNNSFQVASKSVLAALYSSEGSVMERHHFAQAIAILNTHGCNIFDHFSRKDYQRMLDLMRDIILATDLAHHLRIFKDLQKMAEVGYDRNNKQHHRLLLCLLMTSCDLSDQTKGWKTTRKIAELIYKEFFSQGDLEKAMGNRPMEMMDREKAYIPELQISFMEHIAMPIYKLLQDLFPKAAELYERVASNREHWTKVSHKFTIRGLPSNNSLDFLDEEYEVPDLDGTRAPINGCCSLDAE

Structure (SMILES): CCOc1cc2c(cc1OCC)[C@@H](CC)C(C)=NN=C2c1ccc(OC)c(OC)c1 [R-etofisopam, (R) 1-(3,4-dimethoxy-phenyl)-4-methyl-5-ethyl-7,8-diethoxy-5H-2,3-benzodiazepine]
- IC50 [1]: 1 to 100 nM

Structure (SMILES): CCOc1cc2c(cc1OCC)C(CC)C(C)=NN=C2c1ccc(OC)c(OC)c1 (racemic)
- melting point: 91 to 93 °C

Structure (SMILES): CCOc1cc2c(cc1OCC)[C@H](CC)C(C)=NN=C2c1ccc(OC)c(OC)c1 [S-etofisopam, 5S-(3,4-dimethoxyphenyl)-5-ethyl-4-methyl-7,8-diethoxy-5H-2,3-benzodiazepine]
- inhibition of the other PDEs, especially PDE3, compared with PDE4 or PDE2 (PDE3 (human)): more weakly
- IC50 [1]: 1 to 100 nM
- IC50 ([2]; read-out: IC50 PDE4, substrate [3H]cAMP+cAMP 1 μM, 30 minutes at 30° C.): 20 nM
- effect on the bone quantity and microarchitecture (BV/TV, Tb.N) (trabecular bone): Identity results

Structure (SMILES): COCc1nc2c([nH]1)c(=O)n(C)c(=O)n2CC(C)C [8-methoxy-IBMX]
- IC50 (PDE1 (bovine)): 2900 nM

Structure (SMILES): CCCCCC[C@@H]([C@@H](C)O)n1cnc2c(N)ncnc21 (racemic) [EHNA, reference compound]
- IC50 [3]: 2100 nM

Structure (SMILES): C[C@@H]1C[C@H]2[C@@H]3CCC4=CC(=O)C=C[C@]4(C)[C@@]3(F)[C@@H](O)C[C@]2(C)[C@@]1(O)C(=O)CO [dexamethasone, reference compound]
- IC50 [1]: 4600 nM

Structure (SMILES): CC[C@@H]1C(C)=NN=C(c2ccc(OC)c(OC)c2)c2cc(OC)c(OC)cc21 [S-tofisopam, (5S)-1-(3,4-dimethoxyphenyl)-5-ethyl-7,8-dimethoxy-4-methyl-5H-2,3-benzodiazepine]
- IC50 [3]: 500 nM
- protection of the neurons [4]: more than 50%
- density of the neurites with added astrocyte culture supernatant ([5]; astrocyte culture supernatant added, compared with control): increasing the density of the neurites
- cell survival: time treated neurons remain alive after application ([5]; control: all neurons disappeared after 15 days): almost four weeks
- neurotrophic and neuroprotective role in neuron culture ([5]; overall conclusion): not only a neurotrophic role but also a neuroprotective role
- growth of the neurites versus control ([5]; primary neuron culture, test concentrations 0.1, 1 and 10 μmol/l (FIG. 1: 50 μM added on day 8)): greater growth of the neurites than in the cells used as control
- inhibition of the other PDEs, especially PDE3, compared with PDE4 or PDE2 (PDE3 (human)): more weakly
- IC50 [1]: 1 to 100 nM
- inhibition on PDE4 relative to R-tofisopam ([2]; S-tofisopam versus R-tofisopam): ten times higher
- markers and cellular activity: effect on bone formation and bone resorption (trabecular bone): uncoupling effect: anabolic on bone formation, inhibitory on bone resorption
- effect on the bone quantity and microarchitecture (BV/TV, Tb.N) (trabecular bone): positive effect
